The values that follow come from paper PMC9143043, “Synthesis and Biological Evaluation of 5′-O-Fatty Acyl Ester Derivatives of 3′-Fluoro-2′,3′-dideoxythymidine as Potential Anti-HIV Microbicides” (Molecules, 2022).

Usually EC50 stands for the concentration needed to bring the measured effect to its halfway point. One may read the pKa as the negative logarithm of the acid dissociation constant. Usually chromatographic logD stands for a lipophilicity value derived from retention on a column. A higher chromatographic logD goes with higher lipophilicity.

One data set in a line: Cytotoxicity assay (MTS). The note with it: human, HeLa cells (ATCC CCL-2.1), Table 2; MTS; 50% effective concentration. The class given is cell-based.
Data set [1] concerns HIV-1 strain IIIB (lymphocytotropic strain). Nature of the data set: Single-round infection assay, cell-free X4 virus (lymphocytotropic strain). It counts as cell-based. The conditions noted are these: read-out: (X4) EC50, Table 2, single-round infection assay. As for the experimental part: (§1) Anti-HIV activities of the compounds were evaluated according to the previously reported procedure. In summary, the HeLa (Human cervical carcinoma: ATCC CCL-2.1) cell line was used to measure the inactivation of both the cell-free virus preparations and virus-infected cell preparations. The cells were plated in culture plates 24 h prior to each experiment. Cell-free viral preparations of HIV-1 strains IIIB (lymphocytotropic strain) and BaL (monocytotropic strain) were used for the cell-free assay. For the cell-associated assay, the SulT1 cells were infected with IIIB virus 5 days prior to the experiment. Cell-free virus and virus-infected cells were mixed with different compounds and diluted to make different concentrations. The mixture was further diluted with the buffer and added to the HeLa cells.

Data set [2] is described as follows: pKa by dip-probe absorption spectroscopy (D-PAS). It counts as physicochemical. The note with it: methanol-water co-solvent, Yasuda-Shedlovsky extrapolation. As for the experimental part:
(§2) Physicochemical properties including pKa, Log D, and solubility were determined for 5 (as a model compound). […] It was not possible to measure the partition coefficient (Log P) of the fatty acyl derivatives of FLT and AZT in a standard n-octanol/water mixture because of the insolubility of the compounds in water. The cLog P value was calculated as 5.23 using ChemDraw. […] Since most of 5 is in its neutral form, the Log D value will correspond to the Log P value.
The pKa for 5 was determined using dip-probe absorption spectroscopy (D-PAS). The sample was initially titrated in a fast titration between pH 1.8 and pH 12.1 at concentrations of 33–49 µM under aqueous conditions. Precipitation of the sample from the solution was observed below approximately pH 11. The sample was subsequently titrated under methanol–water co-solvent conditions in two triple titrations from pH 12.2 to pH 3.7 at concentrations of 31–49 µM. The methanol ratio varied from to 25.5–50.8%. No precipitation of the sample from the solution was observed under this condition. The pKa was determined from the spectroscopic data by the Yasuda–Shedlovsky extrapolation of the individual obtained results.

The nature of data set [3]: Log D by liquid-liquid distribution chromatography. The note with it: octanol-coated column with octanol-saturated mobile phases, pH 7.4. It counts as physicochemical. As for the experimental part:
as §2
The Log P of 5 was initially investigated by the pH-metric (potentiometric) method. The sample was titrated in three triple titrations from pH 2.5 to pH 11.9 at concentrations of 0.7–1.1 mM in various ratios of octanol/water. The results indicated high sample lipophilicity, although the Log P could not be determined due to the apparent pKa in octanol shifting out of the measurable range. Therefore, the Log D of 5 at pH 7.4 was measured as 5.04 using liquid–liquid distribution chromatography. The Profiler LDA is an isocratic chromatography system that uses an octanol-coated column with octanol saturated mobile phases adjusted to pH 7.4. […]

A further data set deals with sperm. In words: Spermicidal activity (sperm viability and motility). The class given is cell-based. The conditions noted are these: abstract; versus N-9 positive control. As for the experimental part: In this study, several fatty acyl conjugates of nucleosides (5–8, 10–12, 15, and 16) were tested for their spermicidal activities. […] Detailed data analysis is available in the Supplementary Materials (Figure S2).
Human T lymphoblastoid cells (CCRF-CEM, ATCC No. CCL-119) were grown to 70% confluency in a culture medium. CCRF-CEM cells were incubated with 10 µM of the compounds and mixed with trypan blue (0.1%) to color the dead cells. The percentage of viability was calculated by using a Cellometer Auto T.4 (Nexcelom Bioscience). The cell viability against the vaginal cells (VK-2/E6E7) was conducted according to the previously reported procedure. The effect of conjugates on the sperm viability and mobility was evaluated as described previously.

The next data set relates to HIV-1. In words: Anti-HIV activity overall (cell-free and cell-associated assays) and antiviral index. It counts as cell-based.
Text: Table 2, Table 3 and Table 4 illustrate the anti-HIV-1 activities against the cell-free, cell-associated, and multidrug-resistant virus and sperm inhibiting properties of the selected compounds. In summary, the anti-HIV activity of 5′-substituted derivatives of FLT and AZT (5–18) was dependent on the nature of the 5′-substituent. […] None of the other esters were active against cell-associated virus. […] The difference in the activity of fatty acyl derivatives of FLT compared to each other and FLT may be due to their differences in the rate of uptake and intracellular hydrolysis.
By design, the ester moiety in the conjugates needs to be hydrolyzed to render parent nucleosides and fatty acids to produce anti-HIV activity. The anti-HIV activities of 5′-O-ether substituted FLT and AZT (3 and 4, Scheme 2) with a stable tetradecanyl (myristyl) group were compared with hydrolyzable 5′-O-ester substituted FLT and AZT (6 and 7).
as §1

Like-named read-outs stand apart in the source and are kept apart here.

Consider `Cc1cn([C@H]2C[C@H](F)[C@@H](COC(=O)CCCCCCCCCCCN=[N+]=[N-])O2)c(=O)[nH]c1=O` [Compound 5, 3′-fluoro-2′,3′-dideoxy-5′-O-(12-azidododecanoyl)thymidine], for which the EC50 is 1600 µM in “Cytotoxicity assay (MTS)”; not above 1 µM in data set [1] (Human immunodeficiency virus 1, IIIB); 0.9 µM in data set [1]. Besides, the pKa in data set [2] is 9.67. Further, the chromatographic logD in data set [3] was 5.04. Besides, in the data set on sperm, the “effect on sperm viability” value was “did not alter vaginal cell and sperm viability”. Further, the “anti-HIV activity (in words)” value with HIV-1 is reported as “significant anti-HIV activity at noncytotoxic concentrations”. Further, the “antiviral index, times better than AZT” value in the data set with HIV-1 (versus AZT) is on record as more than 30 times. In the data set with HIV-1 (versus FLT), the “antiviral index, times better than FLT” value was more than 4 times.
